Columns and labels:
humans [1] = assay: Distance corrected near visual acuity (DCNVA) in human subjects after topical ocular micro-dosing, conventional vs fractionated
humans [2] = assay: Intraocular pressure (IOP) in human subjects after topical ocular micro-dosing, conventional vs fractionated; format: in vivo; conditions: FIG. 5

CC[C@@H]1C(=O)OC[C@@H]1Cc1cncn1C [pilocarpine]
toxic effects (humans [1]; 2% pilocarpine, double dosing (regimen D) vs single dose (regimen C)): absence of any evident toxic effects | change from baseline DCNVA (letter score) (humans [1]; dose regimen B (fractionated 1% pilocarpine), both eyes, photopic conditions, FIG. 4, significant at 1 and 2 hours post-dosing): biggest gain from baseline at all time points | portion of subjects who gained more than 15 letters of distance corrected near vision compared with baseline (humans [1]; dose regimen B: double (fractionated) micro-dose of 1% pilocarpine, 5 minute interval, mesopic and photopic illumination): 66.7% | eyes that achieved 3 lines of distance corrected near vision improvement (humans [1]; dose regimen C: single non fractionated dose of 2% pilocarpine): 33.3% | eyes that achieved 3 lines of distance corrected near vision improvement (humans [1]; dose regimen D: double dosing of 2% pilocarpine): 0% | distance corrected near visual acuity, group B compared with group A (humans [1]; double (fractionated) dose of 1% pilocarpine (B) vs single conventional dose of 1% pilocarpine (A)): statistically significant improvement | distance corrected near vision, regimen B compared with regimen C (same total drug amount) (humans [1]; fractionated micro-dose of 1% pilocarpine (B) vs 1 dose of 2% pilocarpine (C), mesopic and photopic): performed significantly better | IOP (intraocular pressure) result, regimen B compared with regimen C (humans [2]; dose regimen B: fractionated 1% pilocarpine): performed much better | IOP (intraocular pressure) result (humans [2]; dose regimen C: single dose of 2% pilocarpine): null IOP result

Source: patent US12496218B1, “Fractionated topical ocular drug delivery methods and devices for use in the same” (Bausch + Lomb Ireland Limited, priority 2019, dated 2025)
